According to ChEMBL document CHEMBL6127044, “An insight into G-quadruplexes: Identification and potential therapeutic targets in livestock viruses” (Eur J Med Chem, 2024):
pEC50: −log10 of the molar value.

System: SARS-CoV-2
Assay: Antiviral activity against SARS-CoV-2 Wuhan 5-2N variant infected in African green monkey Vero E6 cells measured 3 days post infection by WST-8 assay
Format: functional, organism-based
Conditions: Severe acute respiratory syndrome coronavirus 2, Wuhan 5-2N, Vero C1008, 72 h

`CCc1c(C)c2cc3nc(cc4nc(cc5c(CC)c(C)c(cc1[nH]2)n5C)C(C)=C4CCC(=O)O)C(CCC(=O)O)=C3C` gave a pEC50 of 8.94.
